The test system of experiment [1] is APAE006 (strain of P. aeruginosa in which all efflux pumps are inactivated). Description: microbe, parasite or virus in culture. The format is cell-based. The settings on record: Pseudomonas aeruginosa, read-out: MIC APAE006, APAE006, all efflux pumps inactivated. In a few lines: (§1)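 Incubation: 35° C., ambient air, 18-24 h. Medium: cation-adjusted Mueller-Hinton broth with 2-fold serial dilutions of drug. Inoculum: 3×10^5–7×10^5 CFU/mL final, per CLSI microdilution method.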

For experiment [2], the system named is APAE006 in the presence of 8 micrograms per milliliter of polymyxin B nonapeptide. It counts as cell-based, P. aeruginosa. The settings on record: APAE006 with 8 micrograms per milliliter polymyxin B nonapeptide. The essentials: as §1
Experiment [3] concerns AABA1060 (clinical isolate of Acinetobacter baumannii). Description: MIC broth microdilution, AABA1060. The following applies: Acinetobacter baumannii, read-out: MIC AABA1060. It counts as cell-based. In a few lines:
as §1
Background: Dilution methods test growth across graded concentrations, often in twofold steps.

Experiment [4] deals with AECO063 (ATCC25922 bearing an acrAB mutation). Description: microbe, parasite or virus in culture. It counts as cell-based, E. coli. The settings on record: Escherichia coli, ATCC25922, read-out: MIC AECO063. In a few lines: as §1
Experiment [5] relates to AECO001 (ATCC25922). Description: MIC broth microdilution, AECO001. It counts as cell-based, E. coli. The following applies: Escherichia coli. In a few lines: as §1
Experiment [6] concerns APAE001 (ATCC27853). Description: MIC broth microdilution, APAE001. It counts as cell-based, P. aeruginosa. The settings on record: Pseudomonas aeruginosa, ATCC27853, read-out: MIC APAE001, APAE001 (ATCC27853). In a few lines: as §1
The subject of experiment [7] is ASAU001 (laboratory strain of S. aureus, ATCC29213). As to the kind of experiment: MIC broth microdilution, ASAU001. It counts as cell-based. The following applies: Staphylococcus aureus, ATCC29213, read-out: MIC ASAU001. The essentials:
as §1

Where [8] appears, read: ATCC25922, read-out: MIC AECO001.
The mark [9] stands for this setting: ATCC25922, read-out: MIC AECO001 HSA AGP.

Values after ≈ are worked out from the molar mass of the structure shown. Where two headings read alike, the source gives them in different places.

With `C[C@@H](N)[C@H](NC(=O)c1ccc(C#Cc2ccc(CN3CCC(F)CC3)cc2)cc1)C(=O)NO` [Example 115-1, N-((2S,3R)-3-amino-1-(hydroxyamino)-1-oxobutan-2-yl)-4-((4-((4-fluoropiperidin-1-yl)methyl)phenyl)ethynyl)benzamide], the MIC in experiment [1] was below 2 µg/mL; in experiment [3] it was 2 to 16 µg/mL (≈ 4.42 to 35.4 µM); in experiment [4] it was below 2 µg/mL; in experiment [5] (setting [8]) it was below 2 µg/mL; in experiment [5] (setting [9]) it was 2 to 16 µg/mL (≈ 4.42 to 35.4 µM); in experiment [6] it was 2 to 16 µg/mL (≈ 4.42 to 35.4 µM). Besides, the MIC in experiment [7] is above 64 µg/mL. Moreover, in experiment [2], the “MIC APAE006 + PMBN” value is listed as “A (MIC's of 2.0 μg/mL or less = A)”.
For the compound `CC(C)(O)[C@H](NC(=O)c1ccc(C#C/C=C/c2ccncc2)cc1)C(=O)NO` [Example 106-2], the MIC is below 2 µg/mL in experiment [1]; 2 to 16 µg/mL (≈ 5.27 to 42.2 µM) in experiment [3]; below 2 µg/mL in experiment [4]; below 2 µg/mL in experiment [5] (setting [8]); 2 to 16 µg/mL (≈ 5.27 to 42.2 µM) in experiment [5] (setting [9]); 2 to 16 µg/mL (≈ 5.27 to 42.2 µM) in experiment [6]. Moreover, the MIC in experiment [7] fell in the range of 16 to 64 µg/mL (≈ 42.2 to 169 µM). Also, in experiment [2], the “MIC APAE006 + PMBN” value is reported as “A (MIC's of 2.0 μg/mL or less = A)”.
For `CC(C)(N)[C@H](NC(=O)c1ccc(C#CC#Cc2ccc(O)cc2)cc1)C(=O)NO` [Example 83-1, N—((S)-2-Amino-1-hydroxycarbamoyl-2-methyl-propyl)-4-[4-(4-hydroxy-phenyl)-buta-1,3-diynyl]-benzamide], the MIC in experiment [1] is below 2 µg/mL; in experiment [3] it was below 2 µg/mL; in experiment [4] it was below 2 µg/mL; in experiment [5] (setting [8]), below 2 µg/mL; in experiment [5] (setting [9]), 2 to 16 µg/mL (≈ 5.11 to 40.9 µM); in experiment [6], below 2 µg/mL. Also, the MIC in experiment [7] is 16 to 64 µg/mL (≈ 40.9 to 164 µM). Also, the “MIC APAE006 + PMBN” value in experiment [2] is given as “A (MIC's of 2.0 μg/mL or less = A)”.
`CC(C)(N)[C@@H](NC(=O)c1ccc(C#CC#CC2CC2)cc1)C(=O)NO` [Example 91-11]: the MIC in experiment [1] is below 2 µg/mL; in experiment [3], 16 to 64 µg/mL (≈ 47.1 to 189 µM); in experiment [4] it was below 2 µg/mL; in experiment [5] (setting [8]), below 2 µg/mL; in experiment [5] (setting [9]), 16 to 64 µg/mL (≈ 47.1 to 189 µM); in experiment [6] it was 2 to 16 µg/mL (≈ 5.89 to 47.1 µM). Moreover, the MIC in experiment [7] lay in the range of 16 to 64 µg/mL (≈ 47.1 to 189 µM). Also, in experiment [2], the “MIC APAE006 + PMBN” value is recorded as “A (MIC's of 2.0 μg/mL or less = A)”.
As to `O=C(CNC1CC1)NC[C@H](NC(=O)c1ccc(C#Cc2ccccc2)cc1)C(=O)NO` [Example 132-1, N—[(S)-2-(2-Cyclopropylamino-acetylamino)-1-hydroxycarbamoyl-ethyl]-4-phenylethynyl-benzamide], the MIC in experiment [1] was below 2 µg/mL; in experiment [3], 2 to 16 µg/mL (≈ 4.76 to 38.1 µM); in experiment [4] it was below 2 µg/mL; in experiment [5] (setting [8]), below 2 µg/mL; in experiment [5] (setting [9]), 2 to 16 µg/mL (≈ 4.76 to 38.1 µM); in experiment [6], 2 to 16 µg/mL (≈ 4.76 to 38.1 µM). In experiment [7], the MIC lay in the range of 16 to 64 µg/mL (≈ 38.1 to 152 µM). For the same compound, the “MIC APAE006 + PMBN” value in experiment [2] is recorded as “A (MIC's of 2.0 μg/mL or less = A)”.
Regarding `C[C@@H](O)[C@H](NC(=O)c1ccc(/C=C/C#Cc2ccccc2F)cc1)C(=O)NO` [Example 114-12], the MIC in experiment [1] was below 2 µg/mL; in experiment [3] it was below 2 µg/mL; in experiment [4], below 2 µg/mL; in experiment [5] (setting [8]), below 2 µg/mL; in experiment [5] (setting [9]) it was 2 to 16 µg/mL (≈ 5.23 to 41.8 µM); in experiment [6], 2 to 16 µg/mL (≈ 5.23 to 41.8 µM). Further, the MIC in experiment [7] lay within 16 to 64 µg/mL (≈ 41.8 to 167 µM). Further, the “MIC APAE006 + PMBN” value in experiment [2] was “A (MIC's of 2.0 μg/mL or less = A)”.
As to `CC(C)CC#CC#Cc1ccc(C(=O)N[C@H](C(=O)NO)C(C)(C)N)cc1` [Example 91-22], the MIC in experiment [1] was below 2 µg/mL; in experiment [3] it was 2 to 16 µg/mL (≈ 5.63 to 45 µM); in experiment [4], below 2 µg/mL; in experiment [5] (setting [8]), below 2 µg/mL; in experiment [5] (setting [9]) it was 2 to 16 µg/mL (≈ 5.63 to 45 µM); in experiment [6] it was 2 to 16 µg/mL (≈ 5.63 to 45 µM). In addition, the MIC in experiment [7] was in the range of 2 to 16 µg/mL (≈ 5.63 to 45 µM). Besides, in experiment [2], the “MIC APAE006 + PMBN” value is listed as “A (MIC's of 2.0 μg/mL or less = A)”.
On to `C[C@@H](N)[C@H](NC(=O)c1ccc(C#CC#Cc2ccc(O)cc2)cc1)C(=O)NO` [Example 83-2], for which the MIC was below 2 µg/mL in experiment [1]; 2 to 16 µg/mL (≈ 5.3 to 42.4 µM) in experiment [3]; below 2 µg/mL in experiment [4]; below 2 µg/mL in experiment [5] (setting [8]); 16 to 64 µg/mL (≈ 42.4 to 170 µM) in experiment [5] (setting [9]); below 2 µg/mL in experiment [6]. The MIC in experiment [7] was 16 to 64 µg/mL (≈ 42.4 to 170 µM). The “MIC APAE006 + PMBN” value in experiment [2] was “A (MIC's of 2.0 μg/mL or less = A)”.
Consider `COc1ccc(C#CC#Cc2ccc(C(=O)N[C@H](C(=O)NO)[C@@H](C)N)cc2)cc1` [Example 82-1, N-((1S,2R)-2-Amino-1-hydroxycarbamoyl-propyl)-4-[4-(4-methoxy-phenyl)-buta-1,3-diynyl]-benzamide], for which the MIC was below 2 µg/mL in experiment [1]; 2 to 16 µg/mL (≈ 5.11 to 40.9 µM) in experiment [3]; below 2 µg/mL in experiment [4]; below 2 µg/mL in experiment [5] (setting [8]); 2 to 16 µg/mL (≈ 5.11 to 40.9 µM) in experiment [5] (setting [9]); 2 to 16 µg/mL (≈ 5.11 to 40.9 µM) in experiment [6]. Moreover, the MIC in experiment [7] is 16 to 64 µg/mL (≈ 40.9 to 164 µM). The “MIC APAE006 + PMBN” value in experiment [2] was “A (MIC's of 2.0 μg/mL or less = A)”.

These data come from patent publication US9617256B2 (priority 2007, dated 2017).
